The numbers were not newly measured in patent publication US20260216122A1, “PHARMACEUTICAL COMPOSITION COMPRISING ENAVOGLIFLOZIN AND METFORMIN” (DAEWOONG PHARMACEUTICAL CO., LTD., priority 2022, published 2026), which cites them from elsewhere.

Where two headings read alike, the source gives them in different places.

Consider `CN(C)C(=N)N=C(N)N` [Metformin], for which the Tmax entry is recorded as “approximately 6 hours” (metformin, administered after a meal) and “approximately 4 hours” (metformin, administered before a meal).

As for `OC[C@H]1O[C@@H](c2cc(Cc3ccc(C4CC4)cc3)c(Cl)c3c2CCO3)[C@H](O)[C@@H](O)[C@@H]1O` [enavogliflozin, (2S,3R,4R,5S,6R)-2-(7-chloro-6-(4-cyclopropylbenzyl)-2,3-dihydrobenzofuran-4-yl)-6-(hydroxymethyl)tetrahydro-2H-pyran-3,4,5-triol], the Tmax entry (enavogliflozin) was “approximately 1 hour”.
